20 compounds from patent publication US11945784B2, “IRE1 small molecule inhibitors” (Cornell University, priority 2018, dated 2024) can be followed below.

Experiment [1] addresses T1, IRE1α (Homo sapiens (Human), UniProt O75460). The experiment in a line: In vitro FRET assay. Type of experiment: biochemical. The settings on record: XBP1 RNA probe. The procedure: In vitro FRET assay was performed to evaluate the ability of select compounds to inhibit IRE1, the results of which are summarized in Table 3. To perform the in vitro FRET assay, 1× complete assay buffer (CAB; […], 50 mM sodium citrate pH 7.15, 1 mM magnesium acetate, 0.02% tween 20) was used to dilute SignalChem IRE1α protein to a final concentration of 2 nM. Selected compounds were serially diluted with DMSO in a non-binding black 384-well plate for a total of 15 ul in each well. 2 ul of the serially diluted compound or DMSO control were then added to new wells containing 98 ul of 1×CAB, for a total volume of 100 ul, 10 ul of which were then transferred to wells of a new plate. 5 ul of the diluted IRE1α was then added to each well. 5 ul of a […] XBP1 RNA probe was then added to each well. Fluorescence was then read over 30 minutes in kinetic mode (485/515 nm).
Two RNA probes were used, XBP1 wildtype (SEQ ID NO: 2) which is able to be spliced by active IRE1α or XBP1 mutant (SEQ ID NO: 3) which is unable to be spliced. Each probe contained a 5′ 6-FAM modification and a 3′ IOWA Black FQ modification.
A second FRET assay was performed to assess ATP-mediated inhibition. In this case, compounds and IRE1α were prepared and combined as discussed above, with the addition of ATP up to 1 mM final concentration. This mixture was incubated at room temperature for 60 minutes and then 5 ul of 400 nM XBP1 wildtype or mutant RNA probe was added. Plates were then read over 30 minutes in kinetic mode (485/515 nm) and rate of fluorescence increase calculated for different compound dilutions to determine IC50 (Table 3).

In experiment [2] the target is T1, IRE1α. The experiment in a line: In vitro luciferase assay (IRE1α Endoribonuclease Nanoluciferase Assay). The following applies: 293T cells, XBP1 luciferase reporter. Type of experiment: cell-based. On the procedure:
Compounds disclosed herein were assessed for disruption of IRE-1 signaling using a IRE1α Endoribonuclease Nanoluciferase Assay. Briefly, 2.5×10^6 293T cells were seeded in a 10 cm^2 tissue culture plate. About 24 hours later, the cells were transfected with Effectene. In a 15 mL Tube, the following was added: 2 μg XBP1 luciferase reporter plasmid (PGK-Luc2-P2A-XBP1u-Nanoluciferase-PEST); 300 μl EC buffer; and 16 μl Enhancer, followed by incubation at room temp for 5 minutes. Next, 60 μl Effectene (Qiagen 301427) was added, followed by incubation at room temperature for 10 minutes. 2.6 mL cDMEM media was added. Old media was aspirated from the cells, followed by addition of 7 mL fresh media. Full transfection mixture was added dropwise to cells. Cells were incubated for 6 hours, followed by trypsinization, centrifugation and resuspension in 11 mL media. 100 uL of cells were plated per a well in a 96 well plate. A day later, ER stressors of choice+/−inhibitors were added. To harvest, media was aspirated from cells completely, then 50 uL 1× passive lysis buffer (Promega: E1941) was added per well and put on shaker (300 rpm) for 30 minutes at room temperature. Cells were centrifuged, and 15 uL sample per well was added to a new, opaque white 384 well plate (Corning 3570). 15 uL OneGlo (nanoluciferase kit, Promega N1630) was added. Plates were spun down, placed on shaker (300 rpm) for 10 minutes. Plates were read on luminometer, 1000 ms integration time per well. 15 uL Stop and Glo (nanoluciferase kit) was added. Plates were spun down, placed on shaker (300 rpm) for 10 minutes. Plates were read on luminometer, 1000 ms second integration time per well. Recordings are provided below in Table 4

T1 sequence (O75460 19-977): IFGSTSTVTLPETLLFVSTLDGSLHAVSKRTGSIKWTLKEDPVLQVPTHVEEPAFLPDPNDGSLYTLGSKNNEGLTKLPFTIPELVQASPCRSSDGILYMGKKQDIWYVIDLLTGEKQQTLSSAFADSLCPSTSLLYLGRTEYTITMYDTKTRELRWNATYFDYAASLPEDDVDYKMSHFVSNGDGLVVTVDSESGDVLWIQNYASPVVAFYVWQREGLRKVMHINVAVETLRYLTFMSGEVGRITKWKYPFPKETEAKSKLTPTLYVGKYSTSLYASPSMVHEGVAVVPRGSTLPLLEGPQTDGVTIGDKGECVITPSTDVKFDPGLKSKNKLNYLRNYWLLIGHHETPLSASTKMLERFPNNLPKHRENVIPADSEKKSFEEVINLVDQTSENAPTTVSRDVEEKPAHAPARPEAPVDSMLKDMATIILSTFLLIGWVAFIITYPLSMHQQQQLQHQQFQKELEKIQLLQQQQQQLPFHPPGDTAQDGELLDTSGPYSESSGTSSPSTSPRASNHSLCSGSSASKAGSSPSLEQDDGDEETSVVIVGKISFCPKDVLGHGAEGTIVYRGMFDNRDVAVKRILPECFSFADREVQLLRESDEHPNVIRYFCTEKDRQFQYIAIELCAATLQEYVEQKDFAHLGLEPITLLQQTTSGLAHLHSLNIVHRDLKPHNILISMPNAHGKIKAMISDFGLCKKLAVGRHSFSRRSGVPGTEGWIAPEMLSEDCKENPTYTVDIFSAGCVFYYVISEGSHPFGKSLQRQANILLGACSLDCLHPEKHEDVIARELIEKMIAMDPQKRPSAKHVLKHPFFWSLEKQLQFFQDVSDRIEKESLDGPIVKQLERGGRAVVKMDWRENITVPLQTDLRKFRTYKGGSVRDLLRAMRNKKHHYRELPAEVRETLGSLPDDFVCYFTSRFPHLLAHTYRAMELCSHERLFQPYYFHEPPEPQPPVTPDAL

As for `COc1nc(NS(=O)(=O)c2cccc(F)c2Cl)ccc1/C=C/c1cnc(NC2CCC(N(C)C)CC2)nc1` (single isomer, unassigned) [Compound 39, 2-chloro-N-(5-((E)-2-(2-(((1r,4r)-4-(dimethylamino)cyclohexyl)amino)pyrimidin-5-yl)vinyl)-6-methoxypyridin-2-yl)-3-fluorobenzenesulfonamide], the 50% inhibitory concentration (IC50) on IRE1α [1] was ≤ 1 nM. Also, on IRE1α [2], the EC50 was ≤ 5 nM.
Taken in the same sequence, the figures for `CCCc1nc(NC2CCC(N)CC2)ncc1/C=C/c1ccc(NS(=O)(=O)c2ccccc2Cl)cc1` (centres unmarked) [Compound 4, N-(4-((E)-2-(2-(((1r,4r)-4-aminocyclohexyl)amino)-4-propylpyrimidin-5-yl)vinyl)phenyl)-2-chlorobenzenesulfonamide] were 1 to 5 nM and 50 to 100 nM.
The matching figures for `Cc1cc(NS(=O)(=O)c2ccccc2Cl)ccc1/C=C/c1cnc(NC2CCC(N)CC2)nc1` (centres unmarked) [Compound 5, N-(4-((E)-2-(2-(((1r,4r)-4-aminocyclohexyl)amino)pyrimidin-5-yl)vinyl)-3-methylphenyl)-2-chlorobenzenesulfonamide]: ≤ 1 nM and ≤ 5 nM.
Taken in the same sequence, the figures for `COc1nc(NS(=O)(=O)c2ccccc2Cl)ccc1/C=C/c1cnc(NC2CCC(N)CC2)nc1` (centres unmarked) [Compound 9, N-(5-((E)-2-(2-(((1r,4r)-4-aminocyclohexyl)amino)pyrimidin-5-yl)vinyl)-6-methoxypyridin-2-yl)-2-chlorobenzenesulfonamide] were ≤ 1 nM and ≤ 5 nM.
As to `COc1cc(NS(=O)(=O)c2ccccc2Cl)ccc1CCc1cnc(NC2CCC(N)CC2)nc1` (centres unmarked) [Compound 15, N-(4-(2-(2-(((1r,4r)-4-aminocyclohexyl)amino)pyrimidin-5-yl)ethyl)-3-methoxyphenyl)-2-chlorobenzenesulfonamide], the IC50 on IRE1α [1] was ≤ 1 nM. This compound showed an EC50 on IRE1α [2] of 100 to 10000 nM.
Taken in the same sequence, the figures for `CCc1cc(NS(=O)(=O)c2ccccc2Cl)cnc1CCc1cnc(NC2CCC(N)CC2)nc1` (centres unmarked) [Compound 16, N-(6-(2-(2-(((1r,4r)-4-aminocyclohexyl)amino)pyrimidin-5-yl)ethyl)-5-ethylpyridin-3-yl)-2-chlorobenzenesulfonamide] were ≤ 1 nM and 100 to 10000 nM.
In the case of `COc1cc(NS(=O)(=O)c2ccccc2Cl)cnc1CCc1cnc(NC2CCC(N)CC2)nc1` (centres unmarked) [Compound 18, N-(6-(2-(2-(((1r,4r)-4-aminocyclohexyl)amino)pyrimidin-5-yl)ethyl)-5-methoxypyridin-3-yl)-2-chlorobenzenesulfonamide], the IC50 against IRE1α [1] was ≤ 1 nM.
At IRE1α [1], `Cc1nc(NS(=O)(=O)c2ccccc2Cl)ccc1CCc1cnc(NC2CCC(O)CC2)nc1` (centres unmarked) [Compound 20, 2-chloro-N-(5-(2-(2-(((1r,4r)-4-hydroxycyclohexyl)amino)pyrimidin-5-yl)ethyl)-6-methylpyridin-2-yl)benzenesulfonamide] returned an IC50 of 100 to 1000 nM.
Compound `Cc1nc(NS(=O)(=O)c2ccccc2Cl)ccc1CCc1cnc(NC2CCC(N(C)C)CC2)nc1` (centres unmarked) [Compound 21, 2-chloro-N-(5-(2-(2-(((1r,4r)-4-(dimethylamino)cyclohexyl)amino)pyrimidin-5-yl)ethyl)-6-methylpyridin-2-yl)benzenesulfonamide] registered an IC50 against IRE1α [1] of 1 to 5 nM.
As for `Cc1nc(NS(=O)(=O)c2ccccc2Cl)c(F)cc1/C=C/c1cnc(NC2CCC(N(C)C)CC2)nc1` (centres unmarked) [Compound 22, 2-chloro-N-(5-((E)-2-(2-(((1r,4r)-4-(dimethylamino)cyclohexyl)amino)pyrimidin-5-yl)vinyl)-3-fluoro-6-methylpyridin-2-yl)benzenesulfonamide], on IRE1α [1], the IC50 is ≤ 1 nM. The EC50 at IRE1α [2] is ≤ 5 nM.
Consider `Cc1cc(NS(=O)(=O)c2ccccc2Cl)c(F)cc1/C=C/c1cnc(NC2CCC(N(C)C)CC2)nc1` (centres unmarked) [Compound 28, 2-chloro-N-(4-((E)-2-(2-(((1r,4r)-4-(dimethylamino)cyclohexyl)amino)pyrimidin-5-yl)vinyl)-2-fluoro-5-methylphenyl)benzenesulfonamide], for which the IC50 against IRE1α [1] was ≤ 1 nM. In addition, the EC50 on IRE1α [2] was ≤ 5 nM.
The matching figures for `CCc1nc(NS(=O)(=O)c2ccccc2Cl)ccc1/C=C/c1cnc(NC2CCC(N(C)C)CC2)nc1` (centres unmarked) [Compound 29, 2-chloro-N-(5-((E)-2-(2-(((1r,4r)-4-(dimethylamino)cyclohexyl)amino)pyrimidin-5-yl)vinyl)-6-ethylpyridin-2-yl)benzenesulfonamide]: ≤ 1 nM and ≤ 5 nM.
On to `CCN(CC)C1CCC(Nc2ncc(/C=C/c3ccc(NS(=O)(=O)c4ccccc4Cl)nc3C)cn2)CC1` (centres unmarked) [Compound 30, 2-chloro-N-(5-((E)-2-(2-(((1r,4r)-4-(diethylamino)cyclohexyl)amino)pyrimidin-5-yl)vinyl)-6-methylpyridin-2-yl)benzenesulfonamide], for which the IC50 on IRE1α [1] was ≤ 1 nM. For the same compound, the EC50 on IRE1α [2] is ≤ 5 nM.
Taken in the same sequence, the figures for `Cc1nc(NS(=O)(=O)c2ccc(F)cc2Cl)ccc1/C=C/c1cnc(NC2CCC(N(C)C)CC2)nc1` (centres unmarked) [Compound 31, 2-chloro-N-(5-((E)-2-(2-(((1r,4r)-4-(dimethylamino)cyclohexyl)amino)pyrimidin-5-yl)vinyl)-6-methylpyridin-2-yl)-4-fluorobenzenesulfonamide] were ≤ 1 nM and ≤ 5 nM.
The matching figures for `COc1nc(NS(=O)(=O)c2ccc(F)cc2Cl)ccc1/C=C/c1cnc(NC2CCC(N(C)C)CC2)nc1` (centres unmarked) [Compound 32, 2-chloro-N-(5-((E)-2-(2-(((1r,4r)-4-(dimethylamino)cyclohexyl)amino)pyrimidin-5-yl)vinyl)-6-methoxypyridin-2-yl)-4-fluorobenzenesulfonamide]: ≤ 1 nM and ≤ 5 nM.
The matching figures for `Cc1nc(NS(=O)(=O)c2cccc(F)c2Cl)ccc1/C=C/c1cnc(NC2CCC(N(C)C)CC2)nc1` (centres unmarked) [Compound 33, 2-chloro-N-(5-((E)-2-(2-(((1r,4r)-4-(dimethylamino)cyclohexyl)amino)pyrimidin-5-yl)vinyl)-6-methylpyridin-2-yl)-3-fluorobenzenesulfonamide]: ≤ 1 nM and ≤ 5 nM.
As to `CN(C)C1CCC(Nc2ncc(/C=C/c3ccc(NS(=O)(=O)c4ccccc4Cl)cc3)cn2)CC1` (centres unmarked) [Compound 34, 2-chloro-N-(4-((E)-2-(2-(((1r,4r)-4-(dimethylamino)cyclohexyl)amino)pyrimidin-5-yl)vinyl)phenyl)benzenesulfonamide], at IRE1α [1], the IC50 was ≤ 1 nM. Besides, the EC50 at IRE1α [2] was ≤ 5 nM.
Taken in the same sequence, the figures for `CN(C)C1CCC(Nc2ncc(/C=C/c3ccc(NS(=O)(=O)c4ccccc4Cl)c(F)c3)cn2)CC1` (centres unmarked) [Compound 35, 2-chloro-N-(4-((E)-2-(2-(((1r,4r)-4-(dimethylamino)cyclohexyl)amino)pyrimidin-5-yl)vinyl)-2-fluorophenyl)benzenesulfonamide] were ≤ 1 nM and 5 to 50 nM.
Turning to `CN(C)C1CCC(Nc2ncc(C=Cc3cnc(NS(=O)(=O)c4ccccc4Cl)nc3)cn2)CC1` (centres unmarked) [Compound 40, 2-chloro-N-(5-(2-(2-(((1r,4r)-4-(dimethylamino)cyclohexyl)amino)pyrimidin-5-yl)vinyl)pyrimidin-2-yl)benzenesulfonamide], the IC50 at IRE1α [1] is ≤ 1 nM.
Turning to `COc1nc(NS(=O)(=O)c2cnccc2Cl)ncc1C=Cc1cnc(NC2CCC(N(C)C)CC2)nc1` (centres unmarked) [Compound 43, 4-chloro-N-(5-(2-(2-(((1r,4r)-4-(dimethylamino)cyclohexyl)amino)pyrimidin-5-yl)vinyl)-4-methoxypyrimidin-2-yl)pyridine-3-sulfonamide], the IC50 at IRE1α [1] lay in the range of 1 to 5 nM.

As a reminder, the IC50 is the concentration that inhibits the measured activity by half. A lower IC50 goes with greater potency. One may read the EC50 as the concentration giving half of the maximal effect.
